The target in assay [1] is vasopressin V1 receptor (rat liver plasma membranes) (Rattus norvegicus, UniProt P30560). Nature of the assay: Binding Assay to Rat Hepatic V1 Receptors. Particulars: rat hepatic V1. How it is done: Rat liver plasma membranes expressing the vasopressin V1 receptor subtypes are isolated by sucrose density gradient according to the method described by Lesko et al., (1973). These membranes are quickly suspended in 50.0 mM Tris.HCl buffer, pH 7.4, containing 0.2% bovine serum albumin (BSA) and 0.1 mM phenylmethylsulfonylfluoride (PMSF) and kept frozen at -70° C. until used in subsequent binding experiments. For binding experiments, the following is added to the wells of a ninety-six well format microtiter plate: 100 μl of 100.0 mM Tris.HCl buffer containing 10.0 mM MgCl2, 0.2% heat inactivated BSA and a mixture of protease inhibitors: leupeptin, 1.0 mg %; aprotinin, 1.0 mg %; 1,10-phenanthroline,2.0 mg %; trypsin inhibitor, 10.0 mg % and 0.1 mM PMSF, 20.0 μl of [phenylalanyl-3,4,5,-^3 H] vasopressin (S.A. 45.1 Ci/mmole) at 0.8 nM, and the reaction initiated by the addition of 80 μl of tissue membranes containing 20 μg of tissue protein. The plates are kept undisturbed on the bench top at room temperature for 120 min. to reach equilibrium. Non-specific samples are assayed in the presence of 0.1 μM of the unlabeled antagonist phenylalanylvasopressin, added in 20.0 μl volume.
For test compounds, these are solubilized in 50% dimethylsulfoxide (DMSO) and added in 20.0 μl volume to a final incubation volume of 200 μl. Upon completion of binding, the content of each well is filtered off, using a Brandel® cell Harvester (Gaithersburg, Md.). The radioactivity trapped on the filter disk by the ligand-receptor complex is assessed by liquid scintillation counting in a Packard LS Counter, with an efficiency of 65% for tritium.

Assay [2] addresses T1, rat kidney medullary V2 receptors (Rattus norvegicus, UniProt Q00788).
T1 construct: Medullary tissues from rat kidneys are dissected out; from tissue; host or cells: rat kidney medulla membranes
Nature of the assay: Binding Assay to Rat Kidney Medullary V2 Receptors. Conditions: rat kidney medullary V2. How it is done:
Medullary tissues from rat kidneys are dissected out, cut into small pieces and soaked in a […] sodium chloride solution containing 1.0 mM EDTA with many changes of the liquid phase, until the solution is clear of blood. The tissue is homogenized in a 0.25M sucrose solution containing 1.0 mM EDTA and 0.1 mM PMSF using a Potter-Elvehjem homogenizer with a teflon pestle. The homogenate is filtered through several layers (4 layers) of cheese cloth. The filtrate is rehomogenized using a dounce homogenizer, with a tight fitting pestle. The final homogenate is centrifuged at 1500×g for 15 min. The nuclear pellet is discarded and the supernatant fluid recentrifuged at 40,000×g for 30 min. The resulting pellet formed contains a dark inner part with the exterior, slightly pink. The pink outer part is suspended in a small amount of 50.0 mM Tris.HCl buffer, pH 7.4. The protein content is determined by the Lowry's method (Lowry et al., J. Biol. Chem., 1953). The membrane suspension is stored at -70° C., in 50.0 mM Tris.HCl, containing 0.2% inactivated BSA and 0.1 mM PMSF in aliquots of 1.0 ml containing 10.0 mg protein per ml of suspension until use in subsequent binding experiments.
For binding experiments, the following is added in μl volume to wells of a 96 well format of a microtiter plate: 100.0 μl of 100.0 mM Tris.HCl buffer containing 0.2% heat inactivated BSA, 10.0 mM MgCl2 and a mixture of protease inhibitors: leupeptin, 1.0 mg %; aprotinin, 1.0 mg %; 1,10-phenanthroline, 2.0 mg %; trypsin inhibitor, 10.0 mg % and 0.1 mM PMSF, 20.0 μl of [^3 H] Arginine^8, vasopressin (S.A. 75.0 Ci/mmole) at 0.8 nM and the reaction initiated by the addition of 80.0 μl of tissue membranes (200.0 μg tissue protein). The plates are left undisturbed on the bench top for 120 min to reach equilibrium. Non-specific binding is assessed in the presence of 1.0 μM of unlabeled ligand, added in 20 μl volume. For test compounds, these are solubilized in 50% dimethylsulfoxide (DMSO) and added in 20.0 μl volume to a final incubation volume of 200 μl. Upon completion of binding, the content of each well is filtered off, using a Brandel® cell Harvester (Gaithersburg, Md.). The radioactivity trapped on the filter disk by the ligand-receptor complex is assessed by liquid scintillation counting in a Packard LS Counter, with an efficiency of 65% for tritium.

For another assay, the system named is vasopressin V2. Kind of assay: Vasopressin V2 Antagonist Activity in Conscious Hydrated Rats (diuretic effect). It counts as in vivo, normal Sprague-Dawley rats. Particulars: AVP 0.4 μg/kg i.p. How it is done:
Conscious hydrated rats are treated with compounds under study from 0.1 to 100 mg/kg orally or vehicle. Two to four rats are used for each compound. One hour later, arginine vasopressin (AVP, antidiuretic hormore, ADH) dissolved in peanut oil is administered at 0.4 μg/kg intraperitoneally. Two rats in each test would not receive arginine vasopressin but only the vehicle (peanut oil) to serve as water-loading control. Twenty minutes later each rat is given 30 mL/kg of deionized water orally by gavage and is placed individually in a metabolic cage equipped with a funnel and a graduated glass cylinder to collect urine for four hours. Urine volume is measured and osmolality analyzed by use of a Fiske One-Ten osmometer (Fiske Assoc., Norwood, Mass., USA). Urinary sodium, potassium, and chloride are analyzed by use of ion-specific electrodes in a Beckman E3 (Electrolyte 3) Analyzer. In the following results, […] and decreased osmolality relative to AVP-control indicates activity.

The subject of the next assay is vasopressin V1. Kind of assay: Vasopressin V1 Antagonist Activity in Conscious Rats (vasopressin vasopressor response). Type of assay: in vivo, rat (spontaneously hypertensive rats). Further details: Average Change: unit not given here. How it is done: Conscious rats are restrained in a supine position with elastic tape. The area at the base of the tail is locally anesthetized by subcutaneous infiltration with 2% procaine (0.2 ml). Using aseptic technique the ventral caudal tail artery is isolated and a cannula made of PE 10 and 20 (heat-fused) tubing is passed into the lower abdominal aorta. The cannula is secured, heparinized (1000 i.u./cc), sealed and the wound closed with one or two stitches of Dexon 4-0. The caudal vein is also cannulated in the same manner for intravenous drug administration. The duration of the surgery is approximately 5 minutes. Additional local anesthesia (2% procaine or lidocaine) is provided as needed.
The animals are placed in plastic restraining cages in an upright position. The cannula is attached to a Statham P23Db pressure transducer and pulsatile blood pressure is recorded. […] The vasopressin injections are repeated 30, 60, 90, 120, 180, 240 and 300 min. later. Percentage of antagonism by the compound is calculated using the pre-drug vasopressin vasopressor response as 100%.

[3] abbreviates: 10 mg/kg i.v., VAS 0.01 i.u./kg, 30 min.
The mark [4] stands for this setting: 10 mg/kg i.v., VAS 0.02 i.u./kg, 30 min.
The mark [5] stands for this setting: 20 mg/kg i.v., VAS 0.01 i.u./kg, 60 min.
Where [6] appears, read: 20 mg/kg i.v., VAS 0.01 i.u./kg, 90 min.
[7] abbreviates: 20 mg/kg i.v., VAS 0.01 i.u./kg, 120 min.
[8] abbreviates: 20 mg/kg i.v., VAS 0.01 i.u./kg, 180 min.
[9] abbreviates: 20 mg/kg i.v., VAS 0.01 i.u./kg, 240 min.
Setting [10] is: 20 mg/kg i.v., VAS 0.01 i.u./kg, 300 min.
Where [11] appears, read: 20 mg/kg i.v., VAS 0.02 i.u./kg, 60 min.
Where [12] appears, read: 20 mg/kg i.v., VAS 0.02 i.u./kg, 90 min.
Setting [13] is: 20 mg/kg i.v., VAS 0.02 i.u./kg, 120 min.
Setting [14] is: 20 mg/kg i.v., VAS 0.02 i.u./kg, 180 min.
[15] abbreviates: 20 mg/kg i.v., VAS 0.02 i.u./kg, 240 min.
Where [16] appears, read: 20 mg/kg i.v., VAS 0.02 i.u./kg, 300 min.

Molecules are shown by their SMILES.

T1 sequence (Q00788 whole entry): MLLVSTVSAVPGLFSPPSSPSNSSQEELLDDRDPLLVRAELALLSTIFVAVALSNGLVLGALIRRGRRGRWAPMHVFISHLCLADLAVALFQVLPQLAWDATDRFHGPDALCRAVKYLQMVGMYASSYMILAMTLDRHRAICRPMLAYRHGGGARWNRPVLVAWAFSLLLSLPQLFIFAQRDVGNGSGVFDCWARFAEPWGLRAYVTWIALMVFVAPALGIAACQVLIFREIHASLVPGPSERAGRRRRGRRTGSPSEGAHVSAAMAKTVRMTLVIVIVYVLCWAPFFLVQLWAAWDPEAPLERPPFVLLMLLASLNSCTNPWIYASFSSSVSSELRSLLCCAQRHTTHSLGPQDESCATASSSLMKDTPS
vasopressin V1 receptor (rat liver plasma membranes), sequence (P30560 whole entry): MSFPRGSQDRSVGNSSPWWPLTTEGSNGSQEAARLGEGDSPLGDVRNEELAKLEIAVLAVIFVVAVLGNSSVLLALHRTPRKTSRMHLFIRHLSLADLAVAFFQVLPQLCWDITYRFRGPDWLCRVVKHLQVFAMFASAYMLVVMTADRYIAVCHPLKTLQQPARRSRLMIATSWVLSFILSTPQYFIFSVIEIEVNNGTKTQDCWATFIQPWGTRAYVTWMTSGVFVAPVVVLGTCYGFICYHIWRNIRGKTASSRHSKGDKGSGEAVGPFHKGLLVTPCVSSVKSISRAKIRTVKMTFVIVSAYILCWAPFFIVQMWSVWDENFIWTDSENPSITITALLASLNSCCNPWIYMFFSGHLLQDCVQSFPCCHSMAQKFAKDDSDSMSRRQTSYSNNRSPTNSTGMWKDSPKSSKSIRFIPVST

Compound `O=C(Nc1ccc(C(=O)N2Cc3ccccc3Cc3ccccc32)cc1)c1c(Cl)cccc1Cl` [Example 252, N-[4-[(6,11-Dihydro-5H-dibenz[b,e]azepin-5-yl)-carbonyl]phenyl]-2,6-dichlorobenzamide] came in with an IC50 in assay [1] of 260 nM. In addition, the IC50 in assay [2] came out at 260 nM. In addition, in the assay on vasopressin V2 (10 mg/kg orally), the Osmolality was 790 mOsm/kg and the “Urine Volume” value is reported as 7.5 ml/4 hrs. In the assay with vasopressin V1 (30 mg/kg i.v.), the “MAX % Inhibition” value is 75% and the “Time of max % inhibition” value turned out to be 120 min.
As for `Cc1ccccc1C(=O)Nc1ccc(C(=O)N2Cc3ccccc3Sc3ccccc32)cc1` [Example 62, N-[4-[(Dibenz[b,f][1,4]thiazepin-10(11H)yl)carbonyl]-phenyl]-2-methylbenzamide], the figures for the IC50 in assay [1] and in assay [2] were 404 nM and 858 nM, respectively. In the assay with vasopressin V2 (10 mg/kg orally), this compound came in with an Osmolality of 1034 mOsm/kg. Further, the “Urine Volume” value in the assay with vasopressin V2 (10 mg/kg orally) is 7.7 ml/4 hrs. The “Average Change” value in the assay with vasopressin V1 (setting [3]) came out at 57; in the assay with vasopressin V1 (setting [4]), 61.5; in the assay on vasopressin V1 (setting [5]), 13; with vasopressin V1 (setting [6]) it was 23; with vasopressin V1 (setting [7]), 23.5; with vasopressin V1 (setting [8]), 24.5. Besides, the “Average Change” value in the assay with vasopressin V1 (setting [9]) turned out to be 30; with vasopressin V1 (setting [10]) it was 25; with vasopressin V1 (setting [11]), 29.5; in the assay with vasopressin V1 (setting [12]), 54; in the assay with vasopressin V1 (setting [13]), 50; in the assay with vasopressin V1 (setting [14]) it was 15. Moreover, the “Average Change” value in the assay with vasopressin V1 (setting [15]) is 40.5; in the assay with vasopressin V1 (setting [16]) it was 38. The Inhibition was -44% in the assay with vasopressin V1 (setting [3]); -2% in the assay with vasopressin V1 (setting [4]); 67% in the assay on vasopressin V1 (setting [5]); 42% with vasopressin V1 (setting [6]); 41% in the assay with vasopressin V1 (setting [7]); 38% in the assay with vasopressin V1 (setting [8]). Also, the Inhibition in the assay with vasopressin V1 (setting [9]) worked out at 24%; in the assay with vasopressin V1 (setting [10]), 37%; with vasopressin V1 (setting [11]) it was 51%; in the assay on vasopressin V1 (setting [12]), 11%; with vasopressin V1 (setting [13]), 17%; in the assay on vasopressin V1 (setting [14]) it was 75%. Also, the Inhibition in the assay with vasopressin V1 (setting [15]) is 33%; in the assay with vasopressin V1 (setting [16]), 37%.
Turning to `Cc1ccccc1C(=O)Nc1ccc(C(=O)N2Cc3ccccc3Cc3cc(Cl)ccc32)cc1` [Example 136], the IC50 in assay [1] worked out at 16 nM. In assay [2], the IC50 was 27 nM. Further, in the assay on vasopressin V2 (30 mg/kg orally), the Osmolality is 306 mOsm/kg and the “Urine Volume” value is 19 ml/4 hrs. Besides, in the assay with vasopressin V1 (10 mg/kg i.v.), the “MAX % Inhibition” value is given as 81% and the “Time of max % inhibition” value was determined as 30 min.
Consider `Cc1cccc(NC(=O)c2ccc(C(=O)N3Cc4ccccc4Cc4ccccc43)cc2)c1C` [Example 124, 4-[(6.11-Dihydro-5H-dibenz[b,e]azepin-5-yl)-carbonyl]-N-(2,3-dimethylphenyl)benzamide], for which the IC50 in assay [1] came out at 1200 nM; in assay [2] it was 210 nM. This compound showed an Osmolality in the assay with vasopressin V2 (10 mg/kg orally) of 1172 mOsm/kg. In addition, in the assay on vasopressin V2 (10 mg/kg orally), the “Urine Volume” value came out at 5.5 ml/4 hrs. Besides, the “Average Change” value is recorded as 38.5 with vasopressin V1 (setting [3]); 43.5 in the assay on vasopressin V1 (setting [4]); 4 in the assay with vasopressin V1 (setting [5]); 12.5 in the assay with vasopressin V1 (setting [6]); 12.5 in the assay on vasopressin V1 (setting [7]); 21 in the assay on vasopressin V1 (setting [8]). Further, the “Average Change” value with vasopressin V1 (setting [9]) amounted to 18; with vasopressin V1 (setting [10]) it was 20; in the assay on vasopressin V1 (setting [11]), 17.5; with vasopressin V1 (setting [12]), 18; in the assay on vasopressin V1 (setting [13]) it was 9.5; with vasopressin V1 (setting [14]), 21.5. In addition, the results for the “Average Change” value in the assay with vasopressin V1 (setting [15]) and in the assay with vasopressin V1 (setting [16]) were 24.5 and 33.5, respectively. In addition, the Inhibition was -23% in the assay on vasopressin V1 (setting [4]); 88% in the assay with vasopressin V1 (setting [5]); 62% in the assay with vasopressin V1 (setting [6]); 62% in the assay with vasopressin V1 (setting [7]); 35% with vasopressin V1 (setting [8]); 45% with vasopressin V1 (setting [9]). The Inhibition is 38% in the assay on vasopressin V1 (setting [10]); 51% in the assay with vasopressin V1 (setting [11]); 49% in the assay with vasopressin V1 (setting [12]); 45% in the assay with vasopressin V1 (setting [13]); 39% in the assay on vasopressin V1 (setting [14]); 31% in the assay on vasopressin V1 (setting [15]). Besides, the Inhibition with vasopressin V1 (setting [16]) is 6%.

Usually IC50 stands for the point on the concentration scale where inhibition reaches its midpoint. The term Inhibition denotes the change of the read-out against control, counted positive when it falls.

The record behind these values is US5834461A, “Tricyclic benzazepine vasopressin antagonists” (American Cyanamid Company, priority 1997, dated 1998).
